Reference: the supplement of paper PMC10307832

How the values were obtained:
Assay in all cases: relative viability (nuclei count vs DMSO), 5 days (fraction); higher = more cells survive
[1] = compound: CN(C)C[C@@H]1CCn2cc(c3ccccc32)C2=C(C(=O)NC2=O)c2cn(c3ccccc23)CCO1 [Ruboxistaurin] + CC(C)C[C@H](NC(=O)[C@H](Cc1ccccc1)NC(=O)c1cnccn1)B(O)O [Bortezomib] (partner 0.002 µM)
How it was run: (§1)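 The day after seeding in 1536-well plates, lung cancer cell lines were treated by pin tool with a single drug, or with a fixed anchor-drug dose together with five library-drug doses (not always all listed) in √10 steps. After 5 days, a combined fix-and-stain solution (final 0.05% Triton X-100, 1% formaldehyde, 1 ug/ml Hoechst) was added. Nuclei counted on 4× images gave relative viability as treated counts over vehicle counts, reported as the median of duplicate plates.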

[2] = compound: CN(C)C[C@@H]1CCn2cc(c3ccccc32)C2=C(C(=O)NC2=O)c2cn(c3ccccc23)CCO1 [Ruboxistaurin] + CCNC(=O)c1noc(-c2cc(C(C)C)c(O)cc2O)c1-c1ccc(CN2CCOCC2)cc1 [Luminespib] (partner 0.01 µM)
How it was run: as §1

[3] = compound: CN(C)C[C@@H]1CCn2cc(c3ccccc32)C2=C(C(=O)NC2=O)c2cn(c3ccccc23)CCO1 [Ruboxistaurin] + COc1cc2c(Oc3ccc(NC(=O)C4(C(=O)Nc5ccc(F)cc5)CC4)cc3F)ccnc2cc1OCCCN1CCOCC1 [Foretinib] (partner 0.25 µM)
How it was run: as §1

[4] = compound: CN(C)C[C@@H]1CCn2cc(c3ccccc32)C2=C(C(=O)NC2=O)c2cn(c3ccccc23)CCO1 [Ruboxistaurin] + Cc1cc(Nc2cc(N3CCN(C)CC3)nc(Sc3ccc(NC(=O)C4CC4)cc3)n2)n[nH]1 [Tozasertib] (partner 0.1 µM)
How it was run: as §1

[5] = compound: CN(C)C[C@@H]1CCn2cc(c3ccccc32)C2=C(C(=O)NC2=O)c2cn(c3ccccc23)CCO1 [Ruboxistaurin] + O=C(CCCCCCC(=O)Nc1ccccc1)NO [Vorinostat] (partner 1 µM)
How it was run: as §1

Cell Line: 201T
- relative viability ([1]; first compound 0.08 µM): 1.12
- relative viability ([1]; first compound 0.8 µM): 1.08
- relative viability ([1]; first compound 2.53 µM): 1.12
- relative viability ([1]; first compound 8 µM): 1.15
- relative viability ([2]; first compound 0.08 µM): 1.09
- relative viability ([2]; first compound 0.8 µM): 1.01
- relative viability ([2]; first compound 2.53 µM): 1.09
- relative viability ([2]; first compound 8 µM): 1
- relative viability ([3]; first compound 0.08 µM): 1.17
- relative viability ([3]; first compound 0.8 µM): 1.02
- relative viability ([3]; first compound 2.53 µM): 1.19
- relative viability ([3]; first compound 8 µM): 0.995
- relative viability ([4]; first compound 0.08 µM): 0.993
- relative viability ([4]; first compound 0.8 µM): 0.815
- relative viability ([4]; first compound 2.53 µM): 0.976
- relative viability ([4]; first compound 8 µM): 0.825
- relative viability ([5]; first compound 0.08 µM): 1
- relative viability ([5]; first compound 0.8 µM): 0.961
- relative viability ([5]; first compound 2.53 µM): 1.05
- relative viability ([5]; first compound 8 µM): 1.03

Cell Line: A-427
- relative viability ([1]; first compound 0.08 µM): 1.01
- relative viability ([1]; first compound 0.8 µM): 0.952
- relative viability ([1]; first compound 2.53 µM): 0.97
- relative viability ([1]; first compound 8 µM): 0.731
- relative viability ([2]; first compound 0.08 µM): 0.974
- relative viability ([2]; first compound 0.8 µM): 0.757
- relative viability ([2]; first compound 2.53 µM): 0.869
- relative viability ([2]; first compound 8 µM): 0.611
- relative viability ([3]; first compound 0.08 µM): 1.01
- relative viability ([3]; first compound 0.8 µM): 0.952
- relative viability ([3]; first compound 2.53 µM): 0.928
- relative viability ([3]; first compound 8 µM): 0.659
- relative viability ([4]; first compound 0.08 µM): 0.19
- relative viability ([4]; first compound 0.8 µM): 0.184
- relative viability ([4]; first compound 2.53 µM): 0.232
- relative viability ([4]; first compound 8 µM): 0.157
- relative viability ([5]; first compound 0.08 µM): 0.826
- relative viability ([5]; first compound 0.8 µM): 0.824
- relative viability ([5]; first compound 2.53 µM): 0.872
- relative viability ([5]; first compound 8 µM): 0.838

Cell Line: ABC-1
- relative viability ([1]; first compound 0.08 µM): 0.357
- relative viability ([1]; first compound 0.8 µM): 0.339
- relative viability ([1]; first compound 2.53 µM): 0.308
- relative viability ([1]; first compound 8 µM): 0.261
- relative viability ([2]; first compound 0.08 µM): 0.773
- relative viability ([2]; first compound 0.8 µM): 0.823
- relative viability ([2]; first compound 2.53 µM): 0.564
- relative viability ([2]; first compound 8 µM): 0.669
- relative viability ([3]; first compound 0.08 µM): 1.21
- relative viability ([3]; first compound 0.8 µM): 1.13
- relative viability ([3]; first compound 2.53 µM): 1.26
- relative viability ([3]; first compound 8 µM): 1.11
- relative viability ([4]; first compound 0.08 µM): 0.178
- relative viability ([4]; first compound 0.8 µM): 0.163
- relative viability ([4]; first compound 2.53 µM): 0.184
- relative viability ([4]; first compound 8 µM): 0.22
- relative viability ([5]; first compound 0.08 µM): 1.22
- relative viability ([5]; first compound 0.8 µM): 1.11
- relative viability ([5]; first compound 2.53 µM): 1.27
- relative viability ([5]; first compound 8 µM): 1.07

Cell Line: BEN
- relative viability ([1]; first compound 0.08 µM): 0.903
- relative viability ([1]; first compound 0.8 µM): 0.78
- relative viability ([1]; first compound 2.53 µM): 0.702
- relative viability ([1]; first compound 8 µM): 0.677
- relative viability ([2]; first compound 0.08 µM): 0.418
- relative viability ([2]; first compound 0.8 µM): 0.391
- relative viability ([2]; first compound 2.53 µM): 0.384
- relative viability ([2]; first compound 8 µM): 0.179
- relative viability ([3]; first compound 0.08 µM): 0.725
- relative viability ([3]; first compound 0.8 µM): 0.722
- relative viability ([3]; first compound 2.53 µM): 0.712
- relative viability ([3]; first compound 8 µM): 0.49
- relative viability ([4]; first compound 0.08 µM): 0.492
- relative viability ([4]; first compound 0.8 µM): 0.45
- relative viability ([4]; first compound 2.53 µM): 0.498
- relative viability ([4]; first compound 8 µM): 0.483
- relative viability ([5]; first compound 0.08 µM): 0.608
- relative viability ([5]; first compound 0.8 µM): 0.544
- relative viability ([5]; first compound 2.53 µM): 0.6
- relative viability ([5]; first compound 8 µM): 0.585

Cell Line: CAL-12T
- relative viability ([1]; first compound 0.08 µM): 1.12
- relative viability ([1]; first compound 0.8 µM): 0.981
- relative viability ([1]; first compound 2.53 µM): 1.06
- relative viability ([1]; first compound 8 µM): 1.11
- relative viability ([2]; first compound 0.08 µM): 0.399
- relative viability ([2]; first compound 0.8 µM): 0.472
- relative viability ([2]; first compound 2.53 µM): 0.362
- relative viability ([2]; first compound 8 µM): 0.544
- relative viability ([3]; first compound 0.08 µM): 1.28
- relative viability ([3]; first compound 0.8 µM): 1.18
- relative viability ([3]; first compound 2.53 µM): 1.16
- relative viability ([3]; first compound 8 µM): 1.16
- relative viability ([4]; first compound 0.08 µM): 0.371
- relative viability ([4]; first compound 0.8 µM): 0.292
- relative viability ([4]; first compound 2.53 µM): 0.301
- relative viability ([4]; first compound 8 µM): 0.211
- relative viability ([5]; first compound 0.08 µM): 0.937
- relative viability ([5]; first compound 0.8 µM): 0.473
- relative viability ([5]; first compound 2.53 µM): 0.744
- relative viability ([5]; first compound 8 µM): 0.941

Cell Line: COR-L23
- relative viability ([1]; first compound 0.08 µM): 1.1
- relative viability ([1]; first compound 0.8 µM): 0.797
- relative viability ([1]; first compound 2.53 µM): 0.968
- relative viability ([1]; first compound 8 µM): 1.35
- relative viability ([2]; first compound 0.08 µM): 0.799
- relative viability ([2]; first compound 0.8 µM): 0.55
- relative viability ([2]; first compound 2.53 µM): 0.714
- relative viability ([2]; first compound 8 µM): 0.632
- relative viability ([3]; first compound 0.08 µM): 1.06
- relative viability ([3]; first compound 0.8 µM): 0.951
- relative viability ([3]; first compound 2.53 µM): 1.11
- relative viability ([3]; first compound 8 µM): 1.05
- relative viability ([4]; first compound 0.08 µM): 0.221
- relative viability ([4]; first compound 0.8 µM): 0.167
- relative viability ([4]; first compound 2.53 µM): 0.202
- relative viability ([4]; first compound 8 µM): 0.153
- relative viability ([5]; first compound 0.08 µM): 0.61
- relative viability ([5]; first compound 0.8 µM): 0.442
- relative viability ([5]; first compound 2.53 µM): 0.522
- relative viability ([5]; first compound 8 µM): 0.501

Cell Line: COR-L 105
- relative viability ([1]; first compound 0.08 µM): 0.906
- relative viability ([1]; first compound 0.8 µM): 0.651
- relative viability ([1]; first compound 2.53 µM): 0.823
- relative viability ([1]; first compound 8 µM): 0.685
- relative viability ([2]; first compound 0.08 µM): 1.06
- relative viability ([2]; first compound 0.8 µM): 0.784
- relative viability ([2]; first compound 2.53 µM): 0.681
- relative viability ([2]; first compound 8 µM): 0.941
- relative viability ([3]; first compound 0.08 µM): 1.37
- relative viability ([3]; first compound 0.8 µM): 0.826
- relative viability ([3]; first compound 2.53 µM): 1.1
- relative viability ([3]; first compound 8 µM): 0.87
- relative viability ([4]; first compound 0.08 µM): 0.385
- relative viability ([4]; first compound 0.8 µM): 0.367
- relative viability ([4]; first compound 2.53 µM): 0.304
- relative viability ([4]; first compound 8 µM): 0.254
- relative viability ([5]; first compound 0.08 µM): 0.96
- relative viability ([5]; first compound 0.8 µM): 0.925
- relative viability ([5]; first compound 2.53 µM): 0.842
- relative viability ([5]; first compound 8 µM): 0.816

Cell Line: ChaGo-K-1
- relative viability ([1]; first compound 0.08 µM): 1.27
- relative viability ([1]; first compound 0.8 µM): 1.06
- relative viability ([1]; first compound 2.53 µM): 1.05
- relative viability ([1]; first compound 8 µM): 0.939
- relative viability ([2]; first compound 0.08 µM): 0.63
- relative viability ([2]; first compound 0.8 µM): 0.558
- relative viability ([2]; first compound 2.53 µM): 0.76
- relative viability ([2]; first compound 8 µM): 0.529
- relative viability ([3]; first compound 0.08 µM): 0.916
- relative viability ([3]; first compound 0.8 µM): 0.888
- relative viability ([3]; first compound 2.53 µM): 0.965
- relative viability ([3]; first compound 8 µM): 0.912
- relative viability ([4]; first compound 0.08 µM): 0.225
- relative viability ([4]; first compound 0.8 µM): 0.242
- relative viability ([4]; first compound 2.53 µM): 0.231
- relative viability ([4]; first compound 8 µM): 0.211
- relative viability ([5]; first compound 0.08 µM): 0.795
- relative viability ([5]; first compound 0.8 µM): 0.712
- relative viability ([5]; first compound 2.53 µM): 0.875
- relative viability ([5]; first compound 8 µM): 0.853
